Measurements from patent US8188273B2, “Insecticidal (1,3,5)-triazinyl phenyl hydrazones” (Dow AgroSciences, LLC., priority 2007, dated 2012).

Experiments:
[1] = tested on: beet armyworm (Spodoptera exigua); experiment: Insecticidal test on treated lepidopteran diet, beet armyworm; assay type: in vivo; conditions: 120 h, second-instar larvae on treated diet, 8 wells, dose of 50 mg/cm^2 [sic] (2000 ppm, 50 μL), dead insects counted 5 days after treatment, read-out: AVG LAPHEG 50 (percent control, beet army worm)
Experimental: (§1) The compounds identified in Table 1 were prepared according to the previous methods and were tested against beet armyworm and corn earworm as follows:
(§2) Insecticidal Test for Corn Earworm (Helicoverpa zea) and Beet Armyworm (Spodoptera exigua).
(§3) To prepare test solution, the test compound was formulated at 2000 ppm solution as 4 mg/2 mL of 9 acetone:1 tap water. 50 μL of the 2000 ppm (equivalent to 50 μg/cm^2 dose on diet surface area) test solution was pipetted upon the surface of 1 mL of lepidopteran diet (Southland Multi-Species Lepidopteran Diet) contained in each of eight wells per insect species (one well=1 replication). A second-instar corn earworm and beet armyworm was placed upon the treated diet in each well once the solvent had air-dried. Trays containing the treated diet and larvae were covered and then held in a growth chamber at 25° C., 50-55% RH, and 16 hr light:8 hr dark for 5 days. Observation were conducted 5 days after treatment and infestation. The number of dead insects of 8 per species per treatment was then determined and the results are given in Table 1 as a percent control at a dose of […].
(§4) Keys to the table: Mass spectral data were obtained using liquid chromatography mass spectroscopy (LC-MS). The masses are detected using electrospray ionization (ESI) and reported as Mol Ion (M+H, M−H); AVG LAPHEG 50 refers to activity against beet army worm (Spodoptera exigua) as defined above; AVG HELIZE 50 refers to activity against corn ear worm (Helicoverpa zea) as described above.

[2] = tested on: corn earworm (Helicoverpa zea); experiment: Insecticidal test on treated lepidopteran diet, corn earworm; assay type: in vivo; conditions: 120 h; second-instar larvae on treated diet, 8 wells; dose of 50 mg/cm^2 [sic] (2000 ppm, 50 μL); dead insects counted 5 days after treatment; read-out: AVG HELIZE 50 (percent control, corn ear worm)
Experimental: as §1, §2, §3, §4

| SMILES | pest or weed control at 2000 µg/mL [1] | pest or weed control at 2000 µg/mL [2] |
| --- | --- | --- |
| Fc1ccc(Nc2nc(NCc3ccc(Cl)nc3)nc(N/N=C/c3ccc(OC(F)(F)F)cc3)n2)cc1C(F)(F)F [Compound 2, N-(6-Chloropyridin-3-ylmethyl)-N′-(4-fluoro-3-trifluoromethylphenyl)-6-{N′-[1-(4-trifluoromethoxyphenyl)-methylidene]-hydrazino}-[1,3,5]triazine-2,4-diamine] | 100% | 100% |
| CCCOc1ccc(Nc2nc(N/N=C/c3cccc(OC(F)(F)C(F)F)c3)nc(N3CCOCC3)n2)cc1 [Compound 79] | 13% | 100% |
| CCNc1nc(N/N=C/c2ccc(OC(F)(F)F)cc2)nc(Nc2ccc(OC(F)(F)F)cc2)n1 [Compound 16] | 13% | 0% |
| Cc1cnc(CNc2nc(N/N=C/c3ccc(OC(F)(F)F)cc3)nc(Nc3ccc(F)c(C(F)(F)F)c3)n2)cn1 [Compound 57] | 100% | 100% |
| Fc1ccc(Nc2nc(NCc3ccc(Cl)nc3)nc(N/N=C/c3ccc(OC(F)(F)C(F)F)cc3)n2)cc1C(F)(F)F [Compound 63] | 100% | 100% |
| FC(F)(F)COc1nc(N/N=C/c2c(Cl)cccc2Cl)nc(Nc2ccc(OC(F)(F)F)cc2)n1 [Compound 35] | 100% | 100% |
| O=C1CN(c2nc(N/N=C/c3cccc(C(F)(F)F)c3)nc(Nc3ccc(OC(F)(F)F)cc3)n2)CCN1 [Compound 7] | 100% | 100% |
| Fc1ccc(Nc2nc(NCc3ccc(C(F)(F)F)nc3)nc(N/N=C/c3ccc(OC(F)(F)F)cc3)n2)cc1C(F)(F)F [Compound 77] | 100% | 100% |
| Cc1cnc(CNc2nc(N/N=C/c3cccc(OC(F)(F)C(F)F)c3)nc(Nc3ccc(F)c(C(F)(F)F)c3)n2)cn1 [Compound 56] | 100% | 63% |
| Fc1ccc(Nc2nc(N/N=C/c3cccc(OC(F)(F)C(F)F)c3)nc(N3CCOCC3)n2)cc1C(F)(F)F [Compound 53] | 100% | 100% |
| FC(F)C(F)(F)Oc1cccc(Nc2nc(NCc3ccc(Cl)nc3)nc(N/N=C/c3ccc(C(F)(F)F)cc3)n2)c1 [Compound 85] | 100% | 100% |
| C/C(=N\Nc1nc(Nc2ccc(OC(F)(F)F)cc2)nc(N2CCOCC2)n1)c1cccc(C#N)c1 [Compound 5] | 100% | 100% |
| FC(F)C(F)(F)Oc1cccc(/C=N/Nc2nc(Nc3cccc(OC(F)(F)F)c3)nc(N3CCOCC3)n2)c1 [Compound 83] | 100% | 100% |
| CONc1nc(N/N=C/c2cccc(C(F)(F)F)c2)nc(Nc2ccc(OC(F)(F)F)cc2)n1 [Compound 58] | 100% | 100% |
| Fc1ccc(Nc2nc(NCc3ccc(Cl)nc3)nc(N/N=C/c3ccc(Cl)c(Cl)c3)n2)cc1C(F)(F)F [Compound 71] | 100% | 100% |
| FC(F)C(F)(F)Oc1cccc(/C=N/Nc2nc(Nc3ccc(OC(F)(F)F)cc3)nc(OCC(F)(F)F)n2)c1 [Compound 28] | 100% | 100% |
| FC(F)C(F)(F)Oc1ccc(Nc2nc(N/N=C/c3ccc(Cl)c(Cl)c3)nc(N3CCOCC3)n2)cc1 [Compound 89] | 100% | 100% |
| Fc1ccc(Nc2nc(Cl)nc(N/N=C/c3ccc(OC(F)(F)F)cc3)n2)cc1C(F)(F)F [Compound 88] | 100% | 100% |
| FC(F)(F)Oc1ccc(/C=N/Nc2nc(NCCN3CCOCC3)nc(Nc3ccc(OC(F)(F)F)cc3)n2)cc1 [Compound 21] | 100% | 100% |
| CCOCCN(CCOCC)c1nc(N/N=C/c2ccc(OC(F)(F)F)cc2)nc(Nc2ccc(F)c(C(F)(F)F)c2)n1 [Compound 48] | 13% | 0% |
| COc1ccc(CNc2nc(N/N=C/c3ccc(OC(F)(F)F)cc3)nc(Nc3ccc(F)c(C(F)(F)F)c3)n2)cn1 [Compound 82] | 100% | 100% |
| FC(F)C(F)(F)Oc1ccc(/C=N/Nc2nc(Nc3ccc(OC(F)(F)F)cc3)nc(N3CCOCC3)n2)cc1 [Compound 1, (4-Morpholin-4-yl-6-{N′-[4-(1,1,2,2-tetrafluoroethoxy)benzylidene]hydrazino}-1,3,5-triazin-2-yl)-(4-trifluoromethoxyphenyl)amine] | 100% | 100% |

| SMILES | pest or weed control at 2000 µg/mL [1] | pest or weed control at 2000 µg/mL [2] |
| --- | --- | --- |
| FC(F)(F)COc1nc(N/N=C/c2ccccc2OC(F)(F)F)nc(Nc2ccc(OC(F)(F)F)cc2)n1 [Compound 36] | 100% | 100% |
| FC(F)(F)COc1nc(N/N=C/c2ccccc2C(F)(F)F)nc(Nc2ccc(OC(F)(F)F)cc2)n1 [Compound 32] | 100% | 100% |
| COc1cccc(/C=N/Nc2nc(NCc3ccc(Cl)nc3)nc(Nc3ccc(F)c(C(F)(F)F)c3)n2)c1 [Compound 66] | 100% | 100% |
| CCNc1nc(N/N=C/c2ccc(F)cc2)nc(Nc2ccc(OC(F)(F)F)cc2)n1 [Compound 18] | 75% | 38% |
| COCCN(C)c1nc(N/N=C/c2ccc(OC(F)(F)F)cc2)nc(Nc2ccc(OC(F)(F)F)cc2)n1 [Compound 22] | 50% | 13% |
| Fc1ccccc1/C=N/Nc1nc(Nc2ccc(OC(F)(F)F)cc2)nc(OCC(F)(F)F)n1 [Compound 31] | 100% | 100% |
| Fc1ccc(/C=N/Nc2nc(NCc3ccc(Cl)nc3)nc(Nc3ccc(F)c(C(F)(F)F)c3)n2)cc1 [Compound 76] | 100% | 100% |
| FC(F)(F)Oc1ccc(Nc2nc(N/N=C/c3cccc(Cl)c3)nc(N3CCOCC3)n2)cc1 [Compound 37] | 75% | 100% |
| CC1CN(c2nc(N/N=C/c3cc(F)cc(C(F)(F)F)c3)nc(Nc3ccc(F)c(C(F)(F)F)c3)n2)CC(C)O1 (stereo not shown) [Compound 47] | 100% | 75% |
| Fc1ccc(Nc2nc(NCCc3cccnc3)nc(N/N=C/c3ccc(OC(F)(F)F)cc3)n2)cc1C(F)(F)F [Compound 80] | 100% | 100% |
| Fc1ccc(Nc2ncnc(N/N=C/c3ccc(OC(F)(F)C(F)F)cc3)n2)cc1C(F)(F)F [Compound 97] | 100% | 100% |
| COCCNc1nc(N/N=C/c2ccc(F)cc2)nc(Nc2ccc(OC(F)(F)F)cc2)n1 [Compound 17] | 50% | 63% |
| FC(F)C(F)(F)Oc1ccc(Nc2nc(NCc3ccc(Cl)nc3)nc(N/N=C/c3ccc(Cl)cc3)n2)cc1 [Compound 87] | 100% | 100% |
| Fc1cc(C(F)(F)F)ccc1Nc1nc(N/N=C/c2cccc(OC(F)(F)C(F)F)c2)nc(N2CCOCC2)n1 [Compound 81] | 100% | 100% |
| Fc1ccc(Nc2nc(NCc3ccc(Cl)nc3)nc(N/N=C/c3ccc(Cl)cc3)n2)cc1C(F)(F)F [Compound 68] | 100% | 100% |
| N#Cc1ccc(/C=N/Nc2nc(NCc3ccc(Cl)nc3)nc(Nc3ccc(OC(F)(F)C(F)F)cc3)n2)cc1 [Compound 96] | 100% | 100% |
| FC(F)(F)COc1nc(N/N=C/c2cccc(Br)c2)nc(Nc2ccc(OC(F)(F)F)cc2)n1 [Compound 29] | 100% | 100% |
| Fc1ccc(Nc2nc(NCc3ccc(Cl)nc3)nc(N/N=C/c3ccc(C(F)(F)F)cc3)n2)cc1C(F)(F)F [Compound 65] | 100% | 100% |
| FC(F)(F)Oc1ccc(/C=N/Nc2nc(Nc3cccc(C(F)(F)F)c3)nc(N3CCOCC3)n2)cc1 [Compound 62] | 100% | 100% |
| Fc1ccccc1/C=N/Nc1nc(NCc2ccc(Cl)nc2)nc(Nc2ccc(F)c(C(F)(F)F)c2)n1 [Compound 69] | 100% | 100% |
| CCOc1nc(N/N=C/c2cccc(C(F)(F)F)c2)nc(Nc2cccc(C(F)(F)F)c2)n1 [Compound 13] | 0% | 75% |
| FC(F)C(F)(F)Oc1ccc(Nc2ncnc(N/N=C/c3cccc(C(F)(F)F)c3)n2)cc1 [Compound 104] | 50% | 88% |
